Earlier results, collected in publication PMC11292818 (ACS Omega, 2024).

Molecular target: acetylcholinesterase (AChE) (Homo sapiens, UniProt P22303)
Conditions: read-out: IC50 against acetylcholinesterase

Chain of acetylcholinesterase (AChE) (P22303 32-614, species assumed): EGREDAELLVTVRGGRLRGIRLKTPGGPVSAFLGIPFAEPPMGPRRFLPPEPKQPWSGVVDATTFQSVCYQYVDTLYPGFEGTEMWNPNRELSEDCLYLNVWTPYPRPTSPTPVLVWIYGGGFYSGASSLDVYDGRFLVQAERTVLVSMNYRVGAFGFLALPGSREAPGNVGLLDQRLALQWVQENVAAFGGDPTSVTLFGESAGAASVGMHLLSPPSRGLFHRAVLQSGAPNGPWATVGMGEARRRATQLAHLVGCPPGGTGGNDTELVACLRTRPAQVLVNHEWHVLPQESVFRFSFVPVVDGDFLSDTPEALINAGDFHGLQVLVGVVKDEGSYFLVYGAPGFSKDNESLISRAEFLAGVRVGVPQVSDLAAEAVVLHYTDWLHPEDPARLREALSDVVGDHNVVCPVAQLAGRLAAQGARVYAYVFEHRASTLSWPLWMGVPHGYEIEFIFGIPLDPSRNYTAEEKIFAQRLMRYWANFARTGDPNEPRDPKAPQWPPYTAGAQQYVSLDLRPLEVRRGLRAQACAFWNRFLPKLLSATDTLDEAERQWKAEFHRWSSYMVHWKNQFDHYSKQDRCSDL

| Compound | IC50 |
| --- | --- |
| COc1cc(O)c(OC)c(O)c1C(=O)/C=C/c1ccccc1 [Compound 3, 2′,4′-dihydroxy-3′,6′-dimethoxychalcone] | 20.1 µM |
| CC(C)=CCc1c(O)ccc(C(=O)/C=C/c2ccc(O)cc2)c1O [Compound 4, isobavachalcone] | 18.3 µM |
